Results published in the supplement of paper PMC10307832.

Legend:
Assay in all cases: relative viability (nuclei count vs DMSO), 5 days (fraction); higher = more cells survive
NCI-H441 = test system: NCI-H441
Summary of the method: (§1)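 Each reported value is a median over duplicate plates. It expresses relative viability: treated-well nuclei count divided by vehicle-well nuclei count. Lung cancer cell lines in 1536-well plates were dosed by pin tool a day after seeding, alone with one drug or with a fixed anchor-drug dose plus five library-drug doses (not always all listed) in √10 steps, and nuclei were counted after 5 days.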

NCI-H1395 = test system: NCI-H1395
Summary of the method: as §1

NCI-H2405 = test system: NCI-H2405
Summary of the method: as §1

NCI-H2228 = test system: NCI-H2228
Summary of the method: as §1

NCI-H2342 = test system: NCI-H2342
Summary of the method: as §1

NCI-H1755 = test system: NCI-H1755
Summary of the method: as §1

HCC-78 = test system: HCC-78
Summary of the method: as §1

PC-3 [JPC-3] = test system: PC-3 [JPC-3]
Summary of the method: as §1

NCI-H522 = test system: NCI-H522
Summary of the method: as §1

HCC-827 = test system: HCC-827
Summary of the method: as §1

NCI-H2009 = test system: NCI-H2009
Summary of the method: as §1

LCLC-97TM1 = test system: LCLC-97TM1
Summary of the method: as §1

NCI-H647 = test system: NCI-H647
Summary of the method: as §1

NCI-H520 = test system: NCI-H520
Summary of the method: as §1

NCI-H1792 = test system: NCI-H1792
Summary of the method: as §1

ChaGo-K-1 = test system: ChaGo-K-1
Summary of the method: as §1

NCI-H1355 = test system: NCI-H1355
Summary of the method: as §1

LOU-NH91 = test system: LOU-NH91
Summary of the method: as §1

NCI-H661 = test system: NCI-H661
Summary of the method: as §1

NCI-H1993 = test system: NCI-H1993
Summary of the method: as §1

SK-MES-1 = test system: SK-MES-1
Summary of the method: as §1

LK-2 = test system: LK-2
Summary of the method: as §1

NCI-H2085 = test system: NCI-H2085
Summary of the method: as §1

`Oc1nc(-c2ccc(C(F)(F)F)cc2)nc2c1CSCC2` [XAV939] + Nc1nc2[nH]cc(CCc3ccc(C(=O)N[C@@H](CCC(=O)O)C(=O)O)cc3)c2c(=O)[nH]1 [Pemetrexed] (partner 0.2 µM) was tested, and the relative viability (NCI-H441; first compound 0.08 µM) was 0.243, the relative viability (NCI-H441; first compound 0.253 µM) was 0.242 and the relative viability (NCI-H441; first compound 0.8 µM) was 0.261. It also gave a relative viability (NCI-H441; first compound 2.53 µM) of 0.231, a relative viability (NCI-H1395; first compound 0.08 µM) of 0.875 and a relative viability (NCI-H1395; first compound 0.253 µM) of 0.832. It also gave a relative viability (NCI-H1395; first compound 0.8 µM) of 0.805, a relative viability (NCI-H1395; first compound 2.53 µM) of 0.908 and a relative viability (NCI-H2405; first compound 0.08 µM) of 0.972. For the same compound, the relative viability (NCI-H2405; first compound 0.253 µM) was 0.992, the relative viability (NCI-H2405; first compound 0.8 µM) was 0.945 and the relative viability (NCI-H2405; first compound 2.53 µM) was 0.94. It also gave a relative viability (NCI-H2228; first compound 0.08 µM) of 0.332, a relative viability (NCI-H2228; first compound 0.253 µM) of 0.341 and a relative viability (NCI-H2228; first compound 0.8 µM) of 0.29. The relative viability (NCI-H2228; first compound 2.53 µM) was 0.271, the relative viability (NCI-H2342; first compound 0.08 µM) was 0.784 and the relative viability (NCI-H2342; first compound 0.253 µM) was 0.662. The relative viability (NCI-H2342; first compound 0.8 µM) was 0.719, the relative viability (NCI-H2342; first compound 2.53 µM) was 0.426 and the relative viability (NCI-H1755; first compound 0.08 µM) was 0.382. For the same compound, the relative viability (NCI-H1755; first compound 0.253 µM) was 0.425, the relative viability (NCI-H1755; first compound 0.8 µM) was 0.489 and the relative viability (NCI-H1755; first compound 2.53 µM) was 0.336. For the same compound, the relative viability (HCC-78; first compound 0.08 µM) was 0.881, the relative viability (HCC-78; first compound 0.253 µM) was 0.829 and the relative viability (HCC-78; first compound 0.8 µM) was 0.846. For the same compound, the relative viability (HCC-78; first compound 2.53 µM) was 0.942, the relative viability (PC-3 [JPC-3]; first compound 0.253 µM) was 1.04 and the relative viability (PC-3 [JPC-3]; first compound 0.8 µM) was 0.946. For the same compound, the relative viability (PC-3 [JPC-3]; first compound 2.53 µM) was 1.11, the relative viability (NCI-H522; first compound 0.08 µM) was 1.04 and the relative viability (NCI-H522; first compound 0.253 µM) was 0.88. The relative viability (NCI-H522; first compound 0.8 µM) was 0.964, the relative viability (NCI-H522; first compound 2.53 µM) was 0.985 and the relative viability (HCC-827; first compound 0.08 µM) was 0.275. It also gave a relative viability (HCC-827; first compound 0.253 µM) of 0.268, a relative viability (HCC-827; first compound 0.8 µM) of 0.254 and a relative viability (HCC-827; first compound 2.53 µM) of 0.245. The relative viability (NCI-H2009; first compound 0.08 µM) was 1.22, the relative viability (NCI-H2009; first compound 0.253 µM) was 1.08 and the relative viability (NCI-H2009; first compound 0.8 µM) was 0.979. For the same compound, the relative viability (NCI-H2009; first compound 2.53 µM) was 0.978, the relative viability (LCLC-97TM1; first compound 0.08 µM) was 0.234 and the relative viability (LCLC-97TM1; first compound 0.253 µM) was 0.179. The relative viability (LCLC-97TM1; first compound 2.53 µM) was 0.162, the relative viability (NCI-H647; first compound 0.08 µM) was 0.168 and the relative viability (NCI-H647; first compound 0.253 µM) was 0.179. It also gave a relative viability (NCI-H647; first compound 0.8 µM) of 0.166, a relative viability (NCI-H647; first compound 2.53 µM) of 0.146 and a relative viability (NCI-H520; first compound 0.08 µM) of 0.757. It also gave a relative viability (NCI-H520; first compound 0.8 µM) of 0.594, a relative viability (NCI-H520; first compound 2.53 µM) of 0.626 and a relative viability (NCI-H1792; first compound 0.08 µM) of 0.967. It also gave a relative viability (NCI-H1792; first compound 0.253 µM) of 0.726, a relative viability (NCI-H1792; first compound 0.8 µM) of 0.813 and a relative viability (NCI-H1792; first compound 2.53 µM) of 0.72. The relative viability (ChaGo-K-1; first compound 0.08 µM) was 0.261, the relative viability (ChaGo-K-1; first compound 0.253 µM) was 0.259 and the relative viability (ChaGo-K-1; first compound 0.8 µM) was 0.269. It also gave a relative viability (ChaGo-K-1; first compound 2.53 µM) of 0.26, a relative viability (NCI-H1355; first compound 0.08 µM) of 1.02 and a relative viability (NCI-H1355; first compound 0.253 µM) of 0.944. For the same compound, the relative viability (NCI-H1355; first compound 0.8 µM) was 0.962, the relative viability (NCI-H1355; first compound 2.53 µM) was 0.852 and the relative viability (LOU-NH91; first compound 0.08 µM) was 0.461. For the same compound, the relative viability (LOU-NH91; first compound 0.253 µM) was 0.359, the relative viability (LOU-NH91; first compound 0.8 µM) was 0.391 and the relative viability (LOU-NH91; first compound 2.53 µM) was 0.349. For the same compound, the relative viability (NCI-H661; first compound 0.08 µM) was 0.947, the relative viability (NCI-H661; first compound 0.253 µM) was 0.868 and the relative viability (NCI-H661; first compound 0.8 µM) was 0.914. It also gave a relative viability (NCI-H661; first compound 2.53 µM) of 0.854, a relative viability (NCI-H1993; first compound 0.08 µM) of 0.575 and a relative viability (NCI-H1993; first compound 0.253 µM) of 0.471. For the same compound, the relative viability (NCI-H1993; first compound 0.8 µM) was 0.536, the relative viability (NCI-H1993; first compound 2.53 µM) was 0.541 and the relative viability (SK-MES-1; first compound 0.08 µM) was 1.01. The relative viability (SK-MES-1; first compound 0.253 µM) was 0.778, the relative viability (SK-MES-1; first compound 0.8 µM) was 0.835 and the relative viability (SK-MES-1; first compound 2.53 µM) was 0.768. For the same compound, the relative viability (LK-2; first compound 0.08 µM) was 0.291, the relative viability (LK-2; first compound 0.253 µM) was 0.281 and the relative viability (LK-2; first compound 0.8 µM) was 0.236. It also gave a relative viability (LK-2; first compound 2.53 µM) of 0.229, a relative viability (NCI-H2085; first compound 0.08 µM) of 1.02 and a relative viability (NCI-H2085; first compound 0.253 µM) of 0.801. The relative viability (NCI-H2085; first compound 0.8 µM) was 0.878 and the relative viability (NCI-H2085; first compound 2.53 µM) was 0.837.
